# Results from publication PMC5697638, “Identification of a Potent Phosphoinositide 3‐Kinase Pan Inhibitor Displaying a Strategic Carboxylic Acid Group and Development of Its Prodrugs” (Chemmedchem, 2017).
# How the values were obtained:
# [1] = target: T1, PI3Kδ (Homo sapiens, UniProt O00329); test: Lineweaver–Burk plot, inhibition mode against PI3Kδ; format: biochemical; conditions: ATP 5-100 μM; 37 at 5, 10, 20 nM
# T1 construct: purchased ProQinase, Germany 1162–1165‐1
# Protocol: Figure 6 Inhibition mode of 37 against PI3Kδ isoform. Lineweaver–Burk plot, 1/v versus 1/[ATP]. The inhibition assay was performed by using varying concentrations of ATP (5, 10, 25, 50, and 100 μM) and fixed concentrations of PI3Kδ recombinant protein (2.4 μg mL^−1) and lipids (1 mg mL^−1 PI/PS lipid micelles mixture) in the presence or absence of different concentrations of 37 (5, 10, and 20 nM).
# Lineweaver–Burk plot: The linear phase of the kinetic reaction was defined with 2.4 μg mL^−1 of PI3Kδ in a 20 min reaction time. In the presence of increasing concentrations of 37 (5, 10 and 20 nM), the PI3K lipid kinase activity (for the assay method see “In vitro selection, lipid kinase assay” in the Experimental Section) was assayed at various concentrations of ATP (5, 10, 25, 50, and 100 μM) and in the presence of 0.5 mg mL^−1 lipid micelles (1:1 phosphatidylinositol/phosphatidylserine). A Lineweaver–Burk plot was obtained by plotting 1/v, for which v represents pmol min^−1 of ADP produced in the reaction measured with the ADP‐Glo Kinase Assay kit from Promega (#V9102) versus 1/[ATP] (the inverse of the ATP concentration). The minus‐enzyme control was obtained by incubating phosphatidylinositol in the absence of PI3Kδ.
# [2] = stability in mouse plasma; format: in vitro ADME; conditions: mouse, mouse plasma, 50 μM substrate, 30 min incubation, 37 °C; read-out: Mouse plasma t 1/2
# Protocol: Twelve esters were prepared (see the Experimental Section for their synthesis and the Supporting Information for chromatographic methods) and evaluated in terms of metabolic stability. For this task, a combined approach based on microsomal and plasmatic stability assays was exploited considering the relevance of the plasmatic and hepatic tissues in esterase activity. Microsomal stability of the selected esters was evaluated by monitoring the disappearance of the substrate incubated in rat liver microsomes (RLM) at 50 μM concentration, in the presence of NADPH. In Table 4, the percentage of the remaining substrate, after incubation (t=60 min), with respect to the initial amount is reported. Overall, the compounds underwent a relevant metabolic transformation, and the substrate depletion ranged from 0 (for 76) to 100 % (for 70). This is mainly due to hydrolysis of the ester function, whereas the metabolites arising from the oxidation catalyzed by the NADPH‐dependent monooxygenase system were negligible from a quantitative point of view. Indeed, the main metabolite formed during the incubation of the esters was corresponding carboxyl derivative 37. […] Moreover, whereas CH2‐pyridin‐4‐yl ester 70 was completely metabolized, corresponding benzyl derivative 65 and piperonyl derivative 72 were more hydrolytically stable, and their residual substrates were 53 and 83 %, respectively. The hydrolytic stability of the selected esters was also evaluated by monitoring the depletion of the substrate incubated at a 50 μM concentration in mouse plasma over a period of 30 min. As expected, the plasmatic metabolic fate of the esters was characterized by the formation of 37 as the only metabolite (see Figure S4). The rate constant k [min^−1], derived for the substrate peak area versus time curve (single‐exponential decay equation—GraphPad Prism software, Inc., San Diego, CA (USA); see Figure S5) was used to calculate the in vitro half‐life t 1/2 [min], and the values are reported in Table 4. […]
# Stability of PI3K inhibitors in mouse plasma
# An aliquot of 460 µL of blank plasma spiked with substrate (50 µM, final concentration, DMSO 5%) was incubated at 37 °C for 30 minutes. Aliquots (70 µL) of the incubation took at 0-2-5-10-20, and 30 minutes were diluted with 140 µL of acetonitrile, homogenized, and centrifuged at 13,000 rpm for five minutes. Supernatants (20 µL) were injected onto HPLC.
# A Shimadzu HPLC system (Shimadzu, Kyoto, Japan), consisting of two LC-10AD Vp module pumps, an SLC-10A Vp system controller, an SIL-10AD Vp autosampler, and a DGU-14-A on-line degasser was used for the analysis. All the chromatographic separations were performed on a Phenomenex Luna C18 5µm (150 x 4.6 mm i.d.) (Phenomenex srl, Castel Bolognese, Italy) as a stationary phase protected by a Luna C18 SecurityGuard (Phenomenex srl). The SPD-M10Avp photodiode array detector was used to detect the analyte at 254 nm. LC Solution 1.24 software was used to process the chromatograms. Aliquots (20 µL) of supernatants obtained from incubations were injected onto the HPLC system and eluted with a mobile phase (flow rate: 1 mL/min) consisting of solvent A- 0.5% aqueous formic acid solution and solvent B- acetonitrile/methanol 80:20.
# The eluants were filtered through a 0.45-µm pore size polyvinylidene difluoride membrane […]
# The following gradients programs were used: […]
# [3] = tested on: PI3K/Akt signaling in PC3 cells; test: PI3K/Akt signaling, Western blot, PC3 cells; format: cell-based; conditions: 12 h treatment, immunoblot
# Protocol: PC3 cells were treated with the indicated concentrations of 64 for 12 h. At the end of treatment, cells were harvested and total cell lysates were prepared. Immunoblot analysis was performed to analyze the expression levels of p‐Akt (T308 and S473), p‐PRAS40 (T246; a target of Akt), as well as the levels of p‐p70S6K (T389), p‐GSK3α/β (S9), and p‐FOXO3A (T32). The figure is representative of at least three independent experiments.
# Western blot analysis: PC3 cells were seeded in 96‐well plates in the presence of free Dulbecco's modified Eagle's medium (DMEM) high‐glucose GlutaMAX^TM (Gibco), 10 % fetal bovine serum (Invitrogen) supplemented with 5000 U mL^−1 penicillin–streptomycin (Gibco). Subsequently, PC3 cells were incubated with increasing concentrations of […] for 12 h. Cells were then lysed with a lysis buffer containing 20 mM Tris‐HCl pH 8, 138 mM NaCl, 2.7 mM KCl, 1 mM CaCl2, 5 mM EDTA pH 8, 1 mM MgCl2, 5 % glycerol, 1 % Triton X‐100, and protein extracts were analyzed by Western blot analysis. […]
# T1 sequence (O00329 whole entry): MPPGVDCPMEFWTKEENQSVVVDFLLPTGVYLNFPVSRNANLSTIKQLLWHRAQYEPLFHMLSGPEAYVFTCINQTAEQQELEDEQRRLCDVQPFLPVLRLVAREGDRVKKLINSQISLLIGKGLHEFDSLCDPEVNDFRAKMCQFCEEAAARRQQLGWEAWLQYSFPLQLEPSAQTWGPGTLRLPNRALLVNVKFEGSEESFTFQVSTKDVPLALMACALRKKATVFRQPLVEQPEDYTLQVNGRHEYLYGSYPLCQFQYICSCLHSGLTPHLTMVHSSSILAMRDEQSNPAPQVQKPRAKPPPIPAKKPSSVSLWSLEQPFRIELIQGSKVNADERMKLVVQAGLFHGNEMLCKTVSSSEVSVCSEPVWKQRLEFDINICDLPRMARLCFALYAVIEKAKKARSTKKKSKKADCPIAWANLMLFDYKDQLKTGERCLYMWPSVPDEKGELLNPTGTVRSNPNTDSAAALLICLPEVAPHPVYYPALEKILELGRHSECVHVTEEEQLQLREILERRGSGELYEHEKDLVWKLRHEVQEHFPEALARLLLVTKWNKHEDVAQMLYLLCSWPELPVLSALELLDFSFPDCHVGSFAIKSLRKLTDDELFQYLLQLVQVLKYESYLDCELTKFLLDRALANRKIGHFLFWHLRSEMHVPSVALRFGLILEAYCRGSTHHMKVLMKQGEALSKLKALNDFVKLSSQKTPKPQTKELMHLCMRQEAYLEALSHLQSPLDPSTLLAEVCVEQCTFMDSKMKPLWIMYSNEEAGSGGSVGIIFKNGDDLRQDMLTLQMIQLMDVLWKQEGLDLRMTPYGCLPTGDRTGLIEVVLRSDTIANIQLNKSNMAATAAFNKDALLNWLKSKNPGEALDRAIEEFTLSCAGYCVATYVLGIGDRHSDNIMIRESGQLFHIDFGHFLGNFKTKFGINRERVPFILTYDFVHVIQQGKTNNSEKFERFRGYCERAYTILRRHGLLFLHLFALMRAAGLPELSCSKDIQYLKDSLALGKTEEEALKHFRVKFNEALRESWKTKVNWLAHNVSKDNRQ
# T1 sequence (P27986 whole entry partner): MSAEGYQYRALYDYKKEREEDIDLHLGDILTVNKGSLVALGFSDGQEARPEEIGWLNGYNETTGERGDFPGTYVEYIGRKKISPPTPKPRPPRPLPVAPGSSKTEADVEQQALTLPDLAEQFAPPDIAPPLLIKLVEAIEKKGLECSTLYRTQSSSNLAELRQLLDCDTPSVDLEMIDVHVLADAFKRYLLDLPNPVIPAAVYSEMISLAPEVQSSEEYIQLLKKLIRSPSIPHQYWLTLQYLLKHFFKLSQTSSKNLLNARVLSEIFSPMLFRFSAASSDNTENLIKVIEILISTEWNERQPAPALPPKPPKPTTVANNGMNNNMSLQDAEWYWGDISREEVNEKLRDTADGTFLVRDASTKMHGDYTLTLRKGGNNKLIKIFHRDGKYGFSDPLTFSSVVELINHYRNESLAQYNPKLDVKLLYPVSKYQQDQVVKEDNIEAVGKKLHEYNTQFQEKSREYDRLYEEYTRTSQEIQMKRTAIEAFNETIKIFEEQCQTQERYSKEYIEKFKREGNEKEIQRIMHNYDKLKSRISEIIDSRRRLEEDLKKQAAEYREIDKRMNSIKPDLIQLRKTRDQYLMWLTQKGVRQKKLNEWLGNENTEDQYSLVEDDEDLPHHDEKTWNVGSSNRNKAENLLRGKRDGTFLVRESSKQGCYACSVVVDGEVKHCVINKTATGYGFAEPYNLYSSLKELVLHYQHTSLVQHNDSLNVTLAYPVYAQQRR
half-life at 50 µM [2],SMILES,inhibition mode against PI3Kδ [1],levels of p-Akt and Akt effectors [3]
,"O=C(O)c1cccc(Cn2cc(-c3cccc4c(=O)cc(N5CCOCC5)[nH]c34)nn2)c1 [Compound 37, 3‐{[4‐(2‐Morpholino‐4‐oxo‐1,4‐dihydroquinolin‐8‐yl)‐1H‐1,2,3‐triazol‐1‐yl]methyl}benzoic acid]",ATP‐competitive inhibitor,
13.3 min,"COC(=O)c1cccc(Cn2cc(-c3cccc4c(=O)cc(N5CCOCC5)[nH]c34)nn2)c1 [Compound 64, Methyl 3‐{[4‐(2‐morpholino‐4‐oxo‐1,4‐dihydroquinolin‐8‐yl)‐1H‐1,2,3‐triazol‐1‐yl]methyl}benzoate]",,"attenuated, in a dose‐dependent manner, the levels of p‐Akt"
